According to US20250032446A1, “METHODS AND COMPOSITIONS FOR THE BIOSYNTHESIS AND USE OF DEMETHYLATED POLYMETHOXY FLAVONES” (RUTGERS, THE STATE UNIVERSITY OF NEW JERSEY, priority 2021, published 2025):
Converted amounts (≈) assume the structure as drawn. “Also recorded” adds a separate entry of the source. Where two headings read alike, the source gives them in different places. Each block holds one compound with its values, some of them ahead of it.

Legend:
AMPK = test: Immunoblotting, AMPK and p-AMPK; assay type: cell-based, mouse; conditions: early and terminal differentiation processes
Protocol: (§1) Primary antibodies which include AMPK-amAb, and Phospho-AMPKa(p-AMPKa) (Thr172) mAb, Acetyl-CoA Carboxylase (ACC) mAb, fatty acid synthase mAb RAs-related Nuclear protein (Ran) pAb, PPARc mAb, and C/EBPa pAb were all obtained from Cell Signaling Technology (Danvers, MA, USA). They were diluted by 1000 times for immunoblotting analyses.
(§2) At day 3 or day 8, cells are harvested with scraper and homogenized with lysis buffer containing 0.5 mM PMSF, 1 mM mini-complete protease inhibitor cocktail (Sigma, St. Louis, MO, USA) and phosphatase inhibitor cocktail (Sigma, St. Louis, MO, USA). Lysates are syringed with 26 gauge ½ in. needles on ice and then applied for centrifugation at 14,000g for 15 min at 4° C. Protein concentration of cell lysates are determined by using Protein and Protein Broad Range (BR) Assay Kits (Thermofisher, Waltham, MA USA) according to the venture's protocol. Lysates are then stored at −80° C. or immediately are subjected to sodium dodecyl sulfate polyacrylamide gel electrophoresis (SDS-PAGE). For the SDS-PAGE, cell lysates are mixed with loading buffer and heated at 95° C. for 5 min prior to electrophoresis. […] Quantification is performed by measuring band intensity using ImageJ software and calculating the ratio of protein of interesting to RAN the internal loading control.

PPARγ = test: Immunoblotting, PPARγ expression; assay type: cell-based, mouse; conditions: early treatment, day 3
Protocol: as §1, §2

ACC = test: Immunoblotting, ACC expression; assay type: cell-based, mouse; conditions: late phase treatment group, day 8
Protocol: as §1, §2

[1] = Effect of pH of fermented media on extracted content of M2 and M3 (stability); assay type: physicochemical; conditions: for stability at alkaline condition: pH 8.0 and 10.0
Protocol: Lastly, the fermented media was adjusted to pH 2.0, 5.0, 6.5, 7.0, 8.0 and 10.0 using HCl or NaOH. Subsequently, 3 extractions were conducted, and the sample was dried, weighed and analyzed using HPLC. The amount of extracted metabolites were compared and used to evaluate the effect of pH on extraction.

FAS = test: Immunoblotting, FAS expression; assay type: cell-based, mouse; conditions: late phase treatment group, day 8
Protocol: as §1, §2

[2] = MTT assay, pre-confluent cell proliferation; assay type: cell-based, mouse; conditions: mouse, pre-confluent 3T3-L1 preadipocytes
Protocol: (§3) 3T3-L1 cells were purchased from American Type Culture Collection (ATCC, Rockville, MD) and maintained in MEME media with 10% FBS 1% penicillin/streptomycin (GIBCO, Paisley, UK) in a humidified atmosphere of 5% CO2 in air at 37° C. Cells were passaged by using 0.05% (vol) Trypsin and replated in 55-cm^2 dishes at a density of 1*10^4 cells/cm^2 until confluence.
(§4) For treatment, nobiletin and the mixture of 6- and 7-OH-nobiletin (M67N) in a 1:49 ratio were first dissolved in dimethyl sulphoxide (DMSO) to make stock solution (5 mM to 100 mM). (FIG. 20) The stock solution was then diluted by 1000 times with culture medium to designated concentrations. Cells cultured in full DMEM was set as negative control while cells treated with DM with 0.1% DMSO as positive control.
(§5) 3T3-L1 cells were seeded on 96-well plate at density of 1×10^4 cells/well and incubated overnight for cell attachment. For measuring pre-confluent cell proliferation, cells were cultivated for 36 hours and full MEME with or without nobiletin or M67N was used. For measuring post-confluent cell proliferation during first three days of differentiation, cells were switched to DM with different concentrations of nobiletin or M67N for 72 hours. At the end of each treatment, cells were washed with PBS three times. MTT ([…]) was added at concentration of 0.5 mg/mL to the cells. After a 3-hour incubation, the medium was decanted from each well and 150 μL DMSO was added to dissolve the formed formazan crystals on a shaker. When the crystal was completely dissolved, the absorbance at 570 nm was measured. Cell viability was interpreted as the percentage (%) of the readout of treated cells divided by that of control. Six repeats were carried out for each concentration.
(§6) 3T3-L1 cells were seeded on 96-well plate at density of 1×10^4 cells/well and were incubated overnight for cell attachment. For measuring pre-confluent cell proliferation, full MEME with or without nobiletin or 6-OH-nobiletin, or 7-OH-nobiletin was used and cells were cultivated for 36 hours. For measuring post-confluent cell proliferation during the first three days of differentiation, cells were treated after 2 days of confluence. Specifically, cells were switched to differentiation medium (DM) with different concentrations of targeted compounds for 24 hours. At the end of each treatment, cells were washed with PBS three times followed by the addition of 100 μL MTT at concentration of 0.5 mg/mL. After 3 hours' incubation, the medium in each well were decanted while 150 μL DMSO was added to dissolve the formed formazan crystals at a shaker. When the crystals were completely dissolved, the absorbance of at 590 nm was measured. Cell viability was interpreted as the percentage (%) of the readout of treated cells divided by that of control. Five repeats were carried out for each concentration.

3T3-L1 cells [3] = test: Flow cytometry with PI staining, cell cycle distribution; assay type: cell-based, mouse
Protocol: 3T3-L1 cells were seeded in six-well plates at a density of 3-5×10^5/well. After 2 days of confluency, cells were treated with DM in the absence or presence of several doses of nobiletin or […] for 24h. Both detached and adherent cells were harvested by trypsinization and washed with phosphate buffered saline (PBS). Cells were fixed with 70% ice cold ethanol and placed at 4° C. overnight. After removal of ethanol, cells were stained with propidium iodide containing RNAse ((Carlsbad, CA)) for 30 min in the dark. Fluorescence cells analysis was carried out by using an Accuri C6 flow cytometer. Data were processed using Flowjo_10 software. Each experiment was performed 3 times to reduce variance.

[4] = MTT assay, post-confluent cells (mitotic clonal expansion); assay type: cell-based, mouse; conditions: mouse, post-confluent 3T3-L1 cells, percent of control, read-out: cell viability
Protocol: as §5, §6

[5] = system: post-confluent 3T3-L1 cells; test: as above; assay type: cell-based, mouse; conditions: 5 μM to 25 μM
Protocol: as §5, §6

C/EBPα = test: Immunoblotting, C/EBPα expression; assay type: cell-based, mouse; conditions: early treatment, day 3
Protocol: as §1, §2

[6] = system: differentiating 3T3-L1 adipocytes; test: Oil Red O staining, lipid accumulation; assay type: cell-based, mouse; conditions: for intracellular lipid content: 15 μM; for intracellular lipid content / lipid formation / accumulation reduced to: relative to positive control; for inhibition at 50 µM: Mus musculus, 3T3-L1; for effect on intracellular lipid accumulation: various concentrations, Oil Red O at day 8
Protocol: Two days after confluence, designated as day 0, adipocyte differentiation was initiated by culturing the cells for three days in differentiation medium (DM) which contained 10 μg/mL insulin, 0.5 mM IBMX, and 1 μM dexamethasone in complete culture medium. At day 3, the medium was replaced with DMEM, containing 10 μg/mL insulin. The medium was changed every two days until day 8. Cells were harvested on day 3 or day 8.
as §4
On day 8, cell layers were washed with 1×PBS and fixed with 10% paraformaldehyde (Sigma, St. Louis, MO, USA). After 15 minutes' fixation, the medium in each well was decanted and placed in a fume hood for complete dryness. Afterwards, cells were subjected to Oil Red O staining for 30 min, which was followed by immediate rinse in water. The intracellular lipid droplets were checked and pictures were captured on Olympus FSX100 Microscope. For the quantification of intracellular lipids, dyes were dissolved in 4% NP-40/isopropanol and the absorbance was measured at 520 nm by a microplate reader.

3T3-L1 preadipocytes = test: MTT assay, pre-confluent cell proliferation; assay type: cell-based, mouse
Protocol: as §3, §4, §5, §6

[7] = Solubility of nobiletin in DMSO; assay type: physicochemical; conditions: organic solvent or mixture, read-out: maximal solubility in DMSO
[8] = Water solubility of nobiletin / nobiletin-HMS dispersion; assay type: physicochemical; conditions: 25 °C
Protocol: To check the water solubility of nobiletin in the nobiletin-HMS dispersion system, an excess of the media-milled nobiletin powder was dispersed into distilled water and agitated thoroughly for 24 hours at room temperature to reach full saturation.

3T3-L1 cells [9] = conditions: 3T3-L1 preadipocytes; Hadrich & Sayadi, 2018; cited from earlier work
[10] = system: post-confluent 3T3-L1 cells; conditions: 3T3-L1 preadipocytes; Hadrich & Sayadi, 2018; cited from earlier work
[11] = fermented media at pH 2.0 (first of four values, pH 2.0 to 7.0)
[12] = fermented media at pH 5.0 (second of four values)
[13] = fermented media at pH 6.5 (third of four values)
[14] = fermented media at pH 7.0 (fourth of four values)

- total amount of extracted metabolite [1, 11]: 123.9 ± 4.6 µg/mL
- total amount of extracted metabolite [1, 12]: 125.6 ± 3.2 µg/mL
- total amount of extracted metabolite [1, 13]: 125.8 ± 1.9 µg/mL
- total amount of extracted metabolite [1, 14]: 125.9 ± 1.2 µg/mL
- content of extracted metabolite ([1]; pH 8.0): 110 ± 1.7 µg/mL
- stability at alkaline condition [1]: not stable at alkaline condition
- content of extracted metabolite ([1]; pH 10.0): 109 ± 2.6 µg/mL
SMILES: COc1ccc(-c2cc(=O)c3c(OC)c(O)c(OC)c(OC)c3o2)cc1OC [6-OH-nobiletin, 6-hydroxy-5,7,8,3′,4′-pentamethoxyflavone]
- expression and phosphorylation of AMPK (AMPK): greatly enhanced
- expression level of PPARγ (PPARγ): dose-dependently suppressed
- expression of ACC (ACC): significantly suppressed their expression
- expression of FAS (FAS): significantly suppressed their expression
- viability at 36 h, 75 µM ([2]; 75 μM, percent of control): ~82%
- viability at 36 h, 100 µM ([2]; 100 μM, percent of control): ~65%
- cells in S phase (3T3-L1 cells [3]; 5 μM): 42%
- preadipocytes in G2/M phase (3T3-L1 cells [3]; 5 μM): 40%
- population in G2/M phase (3T3-L1 cells [3]; 50 μM): 20%
- population in S phase (3T3-L1 cells [3]; 50 μM): 60%
- effect on cell cycle progression (3T3-L1 cells [3]; serial doses in differentiation medium): significantly delayed the progression of the cell cycle and increased the S population in a dose-dependent manner
- viability at 24 h, 35 µM ([4]; 35 μM): 83.1 ± 6.2%
- viability at 24 h, 50 µM ([4]; 50 μM): 85.6 ± 5.3%
- change of cell viability [5]: no significant difference
- production of C/EBPα (C/EBPα): greatly reduced
- intracellular lipid content [6]: 69.8±2.1%
- decrease of lipid content ([6]; 50 μM, early phase treatment (day 0 to day 3)): 50%
- lipid formation / accumulation reduced to ([6]; 50 μM): 24.3±4.2%
- inhibition at 50 µM ([6]; 50 μM, late-phase treatment (day 4 to day 8), read-out: inhibition of lipid accumulation): 72%
- effect of early phase and late phase treatment on lipid accumulation ([6]; early phase day 0-3, late phase day 4-8): suppressed the lipid accumulation in a dose-dependent matter
- effect on intracellular lipid accumulation [6]: obvious suppressive effect on intracellular lipid accumulation

- total amount of extracted metabolite [1, 11]: 46.5 ± 1.3 µg/mL
- total amount of extracted metabolite [1, 12]: 47.5 ± 1.9 µg/mL
- total amount of extracted metabolite [1, 13]: 47.6 ± 0.7 µg/mL
- total amount of extracted metabolite [1, 14]: 46.9 ± 1.5 µg/mL
- content of extracted metabolite ([1]; pH 8.0): 39.2 ± 1.8 µg/mL
- stability at alkaline condition [1]: not stable at alkaline condition
- content of extracted metabolite ([1]; pH 10.0): 11.7 ± 0.6 µg/mL
SMILES: COc1ccc(-c2cc(=O)c3c(OC)c(OC)c(O)c(OC)c3o2)cc1OC [7-OH-nobiletin, 7-hydroxy-5,6,8,3′,4′-pentamethoxyflavone]
- effect on cell proliferation (3T3-L1 preadipocytes; even at 100 μM): did not present significant effect on cell proliferation
- effect on intracellular lipid accumulation [6]: obvious suppressive effect on intracellular lipid accumulation

- solubility [7]: ≤ 18000 µg/mL
- solubility [8]: 9.2 µg/mL (≈ 22.9 µM)
SMILES: COc1ccc(-c2cc(=O)c3c(OC)c(OC)c(OC)c(OC)c3o2)cc1OC [Nobiletin, 5,6,7,8,3′,4′-hexamethoxyflavone, reference compound]
- cytotoxicity at 36 h, 100 μM ([2]; 100 μM, read-out: cell viability reduced by): 50%
- inhibitory effect on the proliferation of preadipocytes (3T3-L1 preadipocytes; up to 75 μM): did not show any inhibitory effect; also recorded: did not demonstrated any inhibition effect
- intracellular lipid content [6]: 101.254±6.096%
- lipid formation / accumulation reduced to ([6]; 50 μM): 45.2±4.9%
- inhibition at 50 µM ([6]; 50 μM, read-out: reduction of lipid formation / inhibition of lipid accumulation): 50%
- effect on intracellular lipid accumulation [6]: decreased the intracellular lipid content in a dose-dependent way; also recorded: obvious suppressive effect on intracellular lipid accumulation

SMILES: O=c1cc(-c2ccc(O)cc2)oc2cc(O[C@@H]3O[C@H](CO)[C@@H](O)[C@H](O)[C@H]3O)cc(O)c12 [apigetrin]
- cell cycle arrest (3T3-L1 cells [9]): arrest 3T3-L1 preadipocytes at G1 phase
- decrease of cell viability [10]: 50%
